4 compounds from US8034954B2, “Calcium channel antagonists” (Icagen, Inc., priority 2005, dated 2011) can be followed below.

The subject of this test is T-type calcium channels. As to the kind of experiment: T-type calcium channel inhibitory activity (Fluo-4 FLIPR fluorescence and whole cell patch clamp). Type of test: cell-based, mammalian. The settings on record: cells natively expressing T-type channels or HEK-293 cells expressing recombinant T-type calcium channels; fluorometric and electrophysiological methods, not distinguished in the table; read-out: Activity (inhibition of T-type calcium channels, IC50). The method, then:
T-type calcium channel inhibitory activity of some compounds of the invention was evaluated using both fluorometric as well as electrophysiological measurement methodologies, which are known to those skilled in the art. Fluorescence measurement of changes in intracellular calcium due to entry of calcium through T-type calcium channels was assessed using calcium sensitive fluorescent dyes Fluo-4 and Fluo-3. In brief, cells natively expressing T-type channels or HEK-293 cells transiently or stably expressing recombinant mammalian T-type calcium channels grown in 96-well tissue culture plates in DMEM/High glucose, Hyclone, Fetal Bovine Serum (10%), and 2 mM sodium pyruvate 2 mM (and for cells lines recombinantly expressing T-type calcium channels, G418@400 mg/liter) were loaded with 4 μM Fluo-4 made up in Earls Balanced Salt Solution (EBSS). After incubation for 30 minutes at room temperature, cells were washed with low calcium (0.5 mM) EBSS to remove extracellular Fluo-4. Baseline fluorescence was measured in a FLIPR (FLuorescence Image Plate Reader) (Molecular Devices Inc) after applying test compounds at desired concentration for 5-10 minutes. The effect of test compound on calcium entry was assessed by monitoring changes in Fluo-4 fluorescence following an elevation of extracellular calcium concentration from 0.5 mM to 5 mM. […] Native cells natively expressing T-type channels or HEK-293 cells transiently or stably expressing recombinant mammalian T-type calcium channels were grown in DMEM/High glucose, Hyclone, Fetal Bovine Serum (10%), 2 mM sodium pyruvate 2 mM (and for cells lines recombinantly expressing T-type calcium channels, G418@400 mg/liter) on glass coverslips in 35 mm tissue culture dishes. […] Electrical currents were measured using the whole cell configuration of the patch clamp technique (Axopatch 200B, Axon Instruments (Molecular Devices) (see Hamill et al (1981) PFugers Arch, 1981 391:85-100) using 2-2.5 MOhm resistance glass pipettes filled with 135 CsF, 5 CsCl, 5 NaCl, 5 EGTA, 10 HEPES, pH 7.3 with CsOH, Osmolarity ˜288 mOsm. Test compound effects were typically assessed under conditions in which approximately half of the available channels were inactivated either by an 8 second conditioning depolarization from a holding potential of −100 mV to a potential ranging from −70 mV to −60 mV or by continually holding the membrane potential at −70 mV. Test compounds were assessed for their ability to reduce the amplitude of the inward T-type calcium current elicited by a 100 ms step depolarization −20 or −30 mV.

For the compound `CCOc1cccc(S(=O)(=O)c2cnc(Nc3cc(NCC[C@H]4CCNC4)nc(C)n3)s2)c1` [Example 10, N-[5-(3-ethoxy-benzenesulfonyl)-thiazol-2-yl]-2-methyl-N′-(R)-(pyrrolidin-3-yl-ethyl)-pyrimidine-4,6-diamine], the concentration for half-maximal inhibition (IC50) was 1 to 1000 nM.

With `CCOc1cccc(S(=O)(=O)c2cnc(Nc3cc(OC[C@H]4CCCN4)nc(C)n3)s2)c1` [Example 21, N-[5-(3-ethoxy-benzenesulfonyl)-thiazol-2-yl]-[2-methyl-((6R)-1-pyrrolidin-2-yl-methoxy)pyrimidin-4-yl]-amine], the half-inhibitory concentration (IC50) was 1 to 1000 nM.

Consider `CCOc1cccc(S(=O)(=O)c2cnc(Nc3cc(OCCN(C)C)nc(C(F)(F)F)n3)s2)c1` [Example 28, [6-(2-Dimethylamino-ethoxy)-2-trifluormethyl-pyrimidin-4-yl]-[5-(3-Ethoxy-benzenesulfonyl)-thiazol-2-yl]-amine], for which the half-maximal inhibitory concentration (IC50) fell in the range of 1 to 1000 nM.

On to “[5-(3-Ethoxy-benzenesulfonyl)-thiazol-2-yl]-[6-(3-methylamino)propyl)-2-methyl-pyrimidin-4-yl]-amine [Example 35]”, for which the IC50 was 1 to 1000 nM.
